pEC50: −log10 of the molar value.
What was measured:
[1] = biological target: T1, Kv3.1 (Homo sapiens, UniProt P48547); assay: FLIPR based Tl+ influx assay for positive modulators of Kv3.1; assay type: cell-based; design: expressed in transfected cells; host or cells: ARF (assay-ready frozen) cells; conditions: thallium influx, FLIPR Tetra, 1536-well
T1 sequence (P48547 1-511): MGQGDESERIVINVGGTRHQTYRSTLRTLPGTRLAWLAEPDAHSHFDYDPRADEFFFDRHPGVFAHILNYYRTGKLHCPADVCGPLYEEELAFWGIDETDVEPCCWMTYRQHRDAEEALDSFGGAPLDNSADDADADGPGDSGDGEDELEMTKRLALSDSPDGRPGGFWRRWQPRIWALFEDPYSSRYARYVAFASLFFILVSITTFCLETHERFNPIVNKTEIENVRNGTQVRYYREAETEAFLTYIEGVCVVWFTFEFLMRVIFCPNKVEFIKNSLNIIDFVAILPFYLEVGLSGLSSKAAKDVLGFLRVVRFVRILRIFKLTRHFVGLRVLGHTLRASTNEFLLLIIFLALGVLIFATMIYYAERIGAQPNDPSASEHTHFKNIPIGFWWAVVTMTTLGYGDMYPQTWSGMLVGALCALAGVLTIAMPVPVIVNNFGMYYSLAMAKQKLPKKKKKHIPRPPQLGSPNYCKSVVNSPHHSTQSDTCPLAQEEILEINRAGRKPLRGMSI
Experimental: FLIPR Based Tl+ Influx Assay for Characterization of Positive Modulators of Kv3.1
Thallium influx assay was performed following manufacturer instruction with modifications. The major improvement was that the assay was miniaturized in 1536w assay plate to achieve ultrahigh throughput. The cell culture medium used for cell plating was the same medium mentioned above without selection antibiotics. Twenty to twenty four hours prior to the assay day, ARF cells in frozen vials were thawed in 37° C. water bath and washed once in the culture medium. The cell density was adjusted at 8.3×E5/ml and plated in 1536-w PDL coated plates (Aurora. US) at 4 μl/w, using Multidrop Combi (Thermo Fisher Scientific, Waltham, MA USA). Plates were then centrifuged at 300 g for two minutes for cells to achieve uniform settlement. The MicroClime plate lid (Labcyte Inc., San Jose, CA USA) was used to prevent evaporation from the edge wells and minimize the edge effect. Plates were incubated at 37° C., 5% CO2 overnight.
On the next day, the cell plates were further loaded with 3 μl/w of fluorescence dye solution containing all required components in the assay kit as instructed by the manufacturer protocol and incubated at room temperature for 60 min. Control and test compounds were then added into the cell plate by acoustic liquid transfer Echo (Labcyte Inc., San Jose, CA USA). After 10 min incubation with compounds, the cell plate was transferred to FLIPR Tetra platform (Molecular Devices, Sunnyvale, CA, USA) for recording fluorescence signal. The plate was recorded with excitation wavelength at 475-485 nm and emission wavelength at 510-545 nm. Data acquisition was taken at 1 Hz and completed in 130 seconds. After the first 10 s of recording, 3 μl of stimulus buffer was added into each well by liquid handler equipped in the FLIPR platform. The buffer contains 95 mM of Na2SO4 to maintain osmolarity, 7.5 mM of K2SO4 to depolarize membrane and activate the voltage gated Kv3.1 or 3.4 channels and 1 mM of Tl2SO4 to provide 2 mM Tl+ for Tl sensitive fluorescent signal. […]

[2] = biological target: T1, Kv3.1; assay: Automated whole cell patch clamp (Qube) on HEK cells overexpressing Kv3.1; assay type: cell-based; design: expressed in transfected cells; host or cells: HEK cells, stably transfected; conditions: stably transfected HEK cells overexpressing Kv3.1
Experimental: In Vitro Characterization of Positive Modulators of Kv3.1 in Automated Patch Clamp
Automated whole cell patch-clamp was performed on the Qube using stably transfected HEK cell lines overexpressing Kv3.1 channels. Stable cell lines expressing Kv3.2 or Kv3.4 were used for counter-screening. Cells were held at −70 mV. Two depolarizing test pulses to −15 mV (200 ms) and +20 mV (200 ms) were given at a frequency of 0.1 Hz. Kv3.1 current amplitude elicited by test pulses was measured before and after compound addition at steady state. Ten concentrations were tested for each molecule. Raw data from Qube experiments were retrieved from the Qube database and analyzed using the Sophion Analyzer software and DR FIT Spotfire analysis. Apparent compound EC50 values, maximum potentiation, and EC2xIK (effective concentration at which a doubling in K current was observed) were determined using dose response 4 parameter curve fitting.

| pEC50 [1] | pEC50 [2] | Compound |
| --- | --- | --- |
| 5.79 | 5.36 | Cc1cccc(Oc2ccc(-n3c(=O)[nH]c4cccnc43)cn2)c1C [Example 1, 3-(6-(2,3-dimethylphenoxy)pyridin-3-yl)-1,3-dihydro-2H-imidazo[4,5-b]pyridin-2-one] |
| 6.84 | 6.67 | Cc1ncc2[nH]c(=O)n(-c3cnc(Oc4cccc5c4C(C)(C)CO5)c(Cl)c3)c2n1 [Example 2, 9-(5-chloro-6-((3,3-dimethyl-2,3-dihydrobenzofuran-4-yl)oxy)pyridin-3-yl)-2-methyl-7,9-dihydro-8H-purin-8-one] |
| 7.51 |  | Cc1ncc2[nH]c(=O)n(-c3cnc(Oc4cccc5c4C(C)(C)CO5)c(Cl)c3C)c2n1 [Example 3, 9-(5-chloro-6-((3,3-dimethyl-2,3-dihydrobenzofuran-4-yl)oxy)-4-methylpyridin-3-yl)-2-methyl-7,9-dihydro-8H-purin-8-one] |

Reference: patent publication US20260125381A1, “NOVEL Kv3 CHANNEL MODULATORS” (Merck Sharp & Dohme LLC, priority 2022, published 2026)
